Source: patent US20150094321A1, “COMBINATION” (GlaxoSmithKline LLC, priority 2009, published 2015)

Key:
Assay in all cases: Cell line proliferation study
Assay type in all cases: cell-based, human
HT29 = conditions: HT29, colon; for IC50: Homo sapiens, HT-29, 72 hours, read-out: gIC50
Experimental: (§1) In a separate study, combination drug tests with Compounds A and B were conducted using a panel of cell lines from human colon cancers (n=26), lung cancers (n=15) and pancreatic cancers (n=6). Cell lines were obtained from commercial vendors (ATCC and DSMZ). Cell lines were grown in RPMI-1640 supplemented with 2 mM glutamine, 1 mM sodium pyruvate and 10% fetal bovine serum (except for Capan-1 and HuP-T4 which were grown with 20% fetal bovine serum) and maintained at 37° C. and 5% CO2 in a humid incubator. Assays were performed in 384 well microtiter plates with optimum seeding densities for each cell line.
(§2) The test compounds were prepared as 10 mM stocks in 100% DMSO. Further dilutions of the compounds were made in DMSO. Compound A was diluted horizontally in a separate 96 well microtiter plate in rows D-G using a 3-fold dilution series for 10 dilution points. Compound B was similarly diluted horizontally in a 96 well microtiter plate in rows B-E using a 3-fold dilution series for 10 dilution points.
(§3) The two compounds were combined using equal volumes from each drug plate into cell culture media. […] Both Compound A and Compound B were individually titrated in rows B and C (for Compound B) and rows F and G (for Compound A) of the merged drug plate.
(§4) A 1:10 dilution of the drugs was performed in cell culture media prior to addition to the cells.
(§5) The final concentration range for the test compounds was 250 to 0.013 nM for Compound A and 1000 to […] for Compound B. The positive control consisted of culture media with DMSO at 0.1% and cells. The negative control consisted of culture media with DMSO at 0.1%. The cell lines were incubated at 37° C., 5% CO2 in humid air for 72 hours. Cell proliferation was measured using the CellTiter Glo (Promega) reagent according to the manufacturer's protocol. The plates are treated with CellTiter Glo solution and are analyzed for RLU (relative light units) using a Molecular Devices SpectraMax M5 plate reader.
(§6) The percent intensity values were used in model 205 of XLfit (IDBS, Inc.) in Microsoft Excel to calculate gIC50 values using a 4 parameter logistical fit. The midpoint of the growth window (the gIC50) falls half way between the number of cells at the time of compound addition (T=0) and the growth of control cells treated with DMSO at 72 hrs. The number of cells at time zero (T0) is divided from the intensity value at the bottom of the response curve (Ymin) to generate a measure for cell death (Ymin/T0). A value below 1 for Ymin/T0 indicates stronger potency to induce cell death with the treatment when compared to higher values.
(§7) 1. Excess over Highest Single Agent (EOHSA)—This was calculated as described above (Borisy et al, 2003; FDA 21 CFR 300.50) 2. Bliss synergy—A second criterion often used to determine combination synergy is evaluating the excess inhibition over Bliss independence or “additivity” (Bliss and Mexico, 1939). The model assumes a combined response of the two compounds independently using the following:
(§8) Where Ea is the effect (or percent inhibition) of Compound A and Eb is the effect of Compound B. The resulting effect of the combination of the two compounds is compared to their predicted additivity by Bliss and a synergy score is generated for each dose along the response curve. 3. Combination Index (CI)—A third criterion traditionally used for the evaluation of synergy is Combination Index (CI) derived from the Chou and Talalay (1984). The following equation is a model used for compounds that behave with different mechanisms of action (mutually non-exclusive formula). This was calculated as described above.
(§9) For EOHSA and Bliss Synergy measures, a score is generated for each dose along the response curve. These scores reflect the percentage over the highest agent (EOHSA) or percentage greater than Bliss additivity, depending on which metric is being interpreted. […]

KM12 = conditions: KM12, colon; for IC50: Homo sapiens, 72 hours, read-out: gIC50
Experimental: as §1, §2, §3, §4, §5, §6, §7, §8, §9

LS174T = conditions: colon; for IC50: Homo sapiens, 72 hours, read-out: gIC50
Experimental: as §1, §2, §3, §4, §5, §6, §7, §8, §9

MiaPaCa = conditions: for IC50: Homo sapiens, MIA PaCa-2, pancreas, 72 hours, read-out: gIC50; for Ymin/T0: pancreas
Experimental: as §1, §2, §3, §4, §5, §6, §7, §8, §9

NCIH1563 = conditions: NCIH1563, lung; for IC50: Homo sapiens, NCI-H1563, 72 hours, read-out: gIC50
Experimental: as §1, §2, §3, §4, §5, §6, §7, §8, §9

NCIH1792 = conditions: NCIH1792, lung; for IC50: Homo sapiens, NCI-H1792, 72 hours, read-out: gIC50
Experimental: as §1, §2, §3, §4, §5, §6, §7, §8, §9

NCIH2030 = conditions: NCIH2030, lung; for IC50: Homo sapiens, NCI-H2030, 72 hours, read-out: gIC50
Experimental: as §1, §2, §3, §4, §5, §6, §7, §8, §9

SW1990 = conditions: SW1990, pancreas; for IC50: Homo sapiens, 72 hours, read-out: gIC50
Experimental: as §1, §2, §3, §4, §5, §6, §7, §8, §9

SW48 = conditions: SW48, colon; for IC50: Homo sapiens, 72 hours, read-out: gIC50
Experimental: as §1, §2, §3, §4, §5, §6, §7, §8, §9

SW620 = conditions: SW620, colon; for IC50: Homo sapiens, SW-620, 72 hours, read-out: gIC50
Experimental: as §1, §2, §3, §4, §5, §6, §7, §8, §9

SW900 = conditions: SW900, lung; for IC50: Homo sapiens, 72 hours, read-out: gIC50
Experimental: as §1, §2, §3, §4, §5, §6, §7, §8, §9

T84 = conditions: T84, colon; for IC50: Homo sapiens, 72 hours, read-out: gIC50
Experimental: as §1, §2, §3, §4, §5, §6, §7, §8, §9

WiDr = conditions: colon; for IC50: Homo sapiens, 72 hours, read-out: gIC50
Experimental: as §1, §2, §3, §4, §5, §6, §7, §8, §9

YAPC = conditions: pancreas; for IC50: Homo sapiens, 72 hours, read-out: gIC50
Experimental: as §1, §2, §3, §4, §5, §6, §7, §8, §9

CC(=O)Nc1cccc(-n2c(=O)n(C3CC3)c(=O)c3c(Nc4ccc(I)cc4F)n(C)c(=O)c(C)c32)c1 [Compound A, N-{3-[3-cyclopropyl-5-(2-fluoro-4-iodo-phenylamino)-6,8-dimethyl-2,4,7-trioxo-3,4,6,7-tetrahydro-2H-pyrido[4,3-d]pyrimidin-1-yl]phenyl}acetamide]
Ymin/T0 (HT29): 11.99
IC50 (HT29): 3.6 nM
IC50 (KM12): 28.7 nM
Ymin/T0 (KM12): 19.1
IC50 (LS174T): 81.4 nM
Ymin/T0 (LS174T): 18.26
IC50 (MiaPaCa): 23.5 nM
Ymin/T0 (MiaPaCa): 25.0
IC50 (NCIH1563): > 250 nM
Ymin/T0 (NCIH1563): 26.6
IC50 (NCIH1792): 42 nM
Ymin/T0 (NCIH1792): 2.8
IC50 (NCIH2030): > 250 nM
Ymin/T0 (NCIH2030): 55.8
IC50 (SW1990): 94 nM
Ymin/T0 (SW1990): 17.1
IC50 (SW48): 8.16 nM
Ymin/T0 (SW48): 13.02
IC50 (SW620): 15.2 nM
Ymin/T0 (SW620): 15.46
IC50 (SW900): 15 nM
Ymin/T0 (SW900): −5.9
IC50 (T84): 139 nM
Ymin/T0 (T84): 12.44
IC50 (WiDr): 1.85 nM
Ymin/T0 (WiDr): 3.94
IC50 (YAPC): > 250 nM
Ymin/T0 (YAPC): 59.4

Cn1ncc(Cl)c1-c1cc(C(=O)N[C@H](CN)Cc2ccc(F)c(F)c2)oc1Cl [Compound B, N-{(1S)-2-amino-1-[(3,4-difluorophenyl)methyl]ethyl}-5-chloro-4-(4-chloro-1-methyl-1H-pyrazol-5-yl)-2-furancarboxamide]
Ymin/T0 (HT29): 11.64
IC50 (HT29): 780 nM
IC50 (KM12): 928 nM
Ymin/T0 (KM12): 13.9
IC50 (LS174T): > 1000 nM
Ymin/T0 (LS174T): 19.70
IC50 (MiaPaCa): > 1000 nM
Ymin/T0 (MiaPaCa): 0.7
IC50 (NCIH1563): 65 nM
Ymin/T0 (NCIH1563): 27.6
IC50 (NCIH1792): > 1000 nM
Ymin/T0 (NCIH1792): 26.0
IC50 (NCIH2030): > 1000 nM
Ymin/T0 (NCIH2030): 40.7
IC50 (SW1990): > 1000 nM
Ymin/T0 (SW1990): 36.8
IC50 (SW48): 428 nM
Ymin/T0 (SW48): 11.68
IC50 (SW620): > 1000 nM
Ymin/T0 (SW620): 76.65
IC50 (SW900): > 1000 nM
Ymin/T0 (SW900): 47.3
IC50 (T84): 427 nM
Ymin/T0 (T84): −5.58
IC50 (WiDr): 700 nM
Ymin/T0 (WiDr): 5.24
IC50 (YAPC): > 1000 nM
Ymin/T0 (YAPC): 55.2
